The text below walks through data of ChEMBL document CHEMBL2449286, “Structure-activity data for a series of P-glycoprotein inhibitors (Supplementary Data to CHEMBL1142990)”.

In the assay the target is ATP-dependent translocase ABCB1 (Homo sapiens, UniProt P08183).
ATP-dependent translocase ABCB1, sequence (P08183 whole entry): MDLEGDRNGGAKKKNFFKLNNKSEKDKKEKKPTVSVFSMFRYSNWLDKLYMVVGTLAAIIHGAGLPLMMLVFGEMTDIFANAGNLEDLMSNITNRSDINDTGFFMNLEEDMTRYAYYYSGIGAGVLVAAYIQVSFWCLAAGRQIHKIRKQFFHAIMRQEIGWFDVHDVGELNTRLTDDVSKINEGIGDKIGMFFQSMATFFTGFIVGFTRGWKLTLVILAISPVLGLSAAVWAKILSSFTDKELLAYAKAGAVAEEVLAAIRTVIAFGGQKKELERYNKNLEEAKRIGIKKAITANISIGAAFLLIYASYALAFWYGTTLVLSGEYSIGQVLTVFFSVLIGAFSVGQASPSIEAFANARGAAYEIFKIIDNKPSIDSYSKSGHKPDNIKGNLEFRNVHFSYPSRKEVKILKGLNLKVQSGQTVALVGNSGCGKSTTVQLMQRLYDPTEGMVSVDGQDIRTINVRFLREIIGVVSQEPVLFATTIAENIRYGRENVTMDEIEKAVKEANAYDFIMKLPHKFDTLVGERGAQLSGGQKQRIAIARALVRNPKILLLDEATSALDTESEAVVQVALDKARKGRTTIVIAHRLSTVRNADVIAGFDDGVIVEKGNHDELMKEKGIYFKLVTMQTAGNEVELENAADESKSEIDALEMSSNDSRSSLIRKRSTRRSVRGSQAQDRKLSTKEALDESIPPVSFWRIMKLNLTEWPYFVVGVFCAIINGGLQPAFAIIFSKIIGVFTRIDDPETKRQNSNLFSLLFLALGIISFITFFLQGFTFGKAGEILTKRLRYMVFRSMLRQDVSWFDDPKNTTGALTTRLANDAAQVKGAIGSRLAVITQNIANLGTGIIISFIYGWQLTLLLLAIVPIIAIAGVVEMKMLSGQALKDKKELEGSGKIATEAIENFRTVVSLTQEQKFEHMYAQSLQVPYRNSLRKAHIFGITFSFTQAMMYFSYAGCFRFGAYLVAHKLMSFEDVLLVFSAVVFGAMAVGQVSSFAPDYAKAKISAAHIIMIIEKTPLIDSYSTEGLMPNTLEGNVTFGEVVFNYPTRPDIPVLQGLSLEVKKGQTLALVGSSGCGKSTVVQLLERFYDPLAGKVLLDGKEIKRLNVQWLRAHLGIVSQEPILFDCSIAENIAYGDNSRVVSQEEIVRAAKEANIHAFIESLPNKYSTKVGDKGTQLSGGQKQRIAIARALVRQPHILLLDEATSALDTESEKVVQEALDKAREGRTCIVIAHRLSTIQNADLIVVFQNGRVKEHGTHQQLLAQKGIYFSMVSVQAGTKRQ
As to `Cc1ccc(-c2n[nH]c3c2[C@@H](c2ccc(N(C)C)cc2)C(C#N)=C(N)O3)cc1`, the EC50 is 3090 nM. The figure for `CC(=O)c1cc(C)ccc1OC[C@H](O)CN(C(C)C)C(C)C` is 6170 nM. The figure for `CC(=O)c1cc(C)ccc1OC[C@H](O)CN1CCN(c2ccc(F)cc2)CC1` is 3630 nM.

For the compound `Cc1ccc(OC[C@H](O)CN2CCCCC2)c(C(=O)CCc2ccccc2)c1`, the response was half-maximal at 263 nM (EC50).

As for `Cc1ccc(OC[C@H](O)CN2CCOCC2)c(C(=O)CCc2ccccc2)c1`, the response was half-maximal at 1660 nM (EC50). This EC50 is about 6.3-fold higher than that of the compound before. `Cc1ccc(OC[C@H](O)CN2CCN(c3ccc(F)cc3)CC2)c(C(=O)CCc2ccccc2)c1` gave a 50% effective concentration (EC50) of 245 nM. This EC50 lies about 6.8-fold lower than the previous one. The figure for `Cc1ccc(OC[C@H](O)CN2CCN(c3cccc(C)c3C)CC2)c(C(=O)CCc2ccccc2)c1` is 56.2 nM; for `Cc1ccc(NC(=S)N2CCN(C[C@@H](O)COc3ccccc3C(=O)c3ccccc3)CC2)cc1` it is 380 nM. The figure for `Cc1ccc(NC(=O)N2CCN(C[C@@H](O)COc3ccccc3C(=O)c3ccccc3)CC2)cc1` is 479 nM. The figure for `O=C(c1ccccc1)c1ccccc1OC[C@@H](O)CN1CCN(C[C@@H](O)COc2ccccc2C(=O)c2ccccc2)CC1` is 52.5 nM. Take `CC(=O)c1cc(C)ccc1OC[C@H](O)CN1CCN(C[C@H](O)COc2ccccc2C(=O)c2ccccc2)CC1`: the EC50 was 9550 nM. The figure for `COc1ccc(N2CCN(C[C@@H](O)COc3ccc(C)cc3C(C)=O)CC2)cc1` is 3470 nM; for `CC(=O)c1cc(C)ccc1OC[C@H](O)CN1CCN(C(=O)Nc2ccc(C)cc2)CC1` it is 7410 nM. The figure for `CC(=O)c1cc(C)ccc1OC[C@H](O)CN1CCN(c2ccc(C)cc2)CC1` is 3160 nM. The figure for `O=C(c1ccccc1)c1ccc(OC[C@H](O)CN2CCN(c3ccc(F)cc3)CC2)cc1` is 977 nM. In turn, `Cc1ccccc1N1CCN(C[C@@H](O)COc2ccc(C(=O)c3ccccc3)cc2)CC1` gave an EC50 of 501 nM.

Compound `Cc1cccc(N2CCN(C[C@@H](O)COc3ccc(C(=O)c4ccccc4)cc3)CC2)c1C` gave an EC50 of 661 nM. The figure for `CCC(=O)c1ccc(OC[C@H](O)CN2CCN(c3cccc(C)c3C)CC2)cc1` is 1410 nM; for `CCC(=O)c1ccc(OC[C@H](O)CN2CCN(c3ccc(F)cc3)CC2)cc1` it is 1450 nM.

Compound `CCC(=O)c1ccc(OC[C@H](O)CN2CCN(c3ccccc3C)CC2)cc1` had an EC50 of 871 nM. This EC50 is about 1.7-fold lower than that of the compound before. On to `CCC(=O)c1ccc(OC[C@H](O)CN2CCCCC2)cc1`, for which the midpoint of the response, the EC50, lay at 33100 nM. The figure for `O=C(CCc1cccc2ccccc12)c1ccc(OC[C@H](O)CN2CCOCC2)cc1` is 1550 nM; for `O=C(c1ccccc1)c1ccccc1OC[C@H](O)CN1CCOCC1` it is 13500 nM. The figure for `O=C(CCc1cccc2ccccc12)c1ccccc1OC[C@H](O)CN1CCN(c2ccc(F)cc2)CC1` is 17.8 nM. The figure for `O=C(c1ccccc1)c1ccc(OC[C@H](O)CN2CCOCC2)cc1` is 5370 nM; for `O=C(c1ccccc1)c1ccc(OC[C@H](O)CN2CCCCC2)cc1` it is 2190 nM; for `CCC(=O)c1ccc(OC[C@H](O)CN(C(C)C)C(C)C)cc1` it is 7760 nM. With `O=C(c1ccccc1)c1cccc(OC[C@H](O)CN2CCN(c3ccc(F)cc3)CC2)c1`, the EC50 was 575 nM.

Take `Cc1cccc(N2CCN(C[C@@H](O)COc3cccc(C(=O)c4ccccc4)c3)CC2)c1C`: the EC50 was 174 nM.

`O=C(c1ccccc1)c1cccc(OC[C@H](O)CN2CCCCC2)c1` gave an EC50 of 3550 nM. This EC50 is about 20-fold higher than that of the compound before.

`Cc1ccccc1N1CCN(C[C@@H](O)COc2cccc(C(=O)c3ccccc3)c2)CC1` showed an EC50 of 204 nM.

In turn, `Cc1cccc(N2CCN(C[C@@H](O)COc3ccc(C(=O)CCc4cccc5ccccc45)cc3)CC2)c1C` had an EC50 of 479 nM. The figure for `O=C(CCc1cccc2ccccc12)c1ccc(OC[C@H](O)CN2CCN(c3ccc(F)cc3)CC2)cc1` is 550 nM. The figure for `Cc1ccccc1N1CCN(C[C@@H](O)COc2ccc(C(=O)CCc3cccc4ccccc34)cc2)CC1` is 407 nM; for `Cc1cccc(N2CCN(C[C@@H](O)COc3cccc(C(=O)CCc4cccc5ccccc45)c3)CC2)c1C` it is 263 nM; for `CC(C)N(C[C@@H](O)COc1ccc(C(=O)c2ccccc2)cc1)C(C)C` it is 437 nM. Take `O=C(c1ccccc1)c1cccc(OC[C@H](O)CN2CCOCC2)c1`: the response was half-maximal at 11500 nM (EC50). The figure for `O=C(CCc1cccc2ccccc12)c1ccc(OC[C@H](O)CN2CCCCC2)cc1` is 263 nM; for `CC(C)N(C[C@@H](O)COc1ccc(C(=O)CCc2cccc3ccccc23)cc1)C(C)C` it is 115 nM; for `O=C(CCc1cccc2ccccc12)c1cccc(OC[C@H](O)CN2CCOCC2)c1` it is 631 nM.

In turn, `O=C(CCc1cccc2ccccc12)c1cccc(OC[C@H](O)CN2CCCCC2)c1` showed an EC50 of 145 nM. This EC50 is about 4.4-fold lower than that of the compound before.

`CC(C)N(C[C@@H](O)COc1cccc(C(=O)CCc2cccc3ccccc23)c1)C(C)C` had an EC50 of 58.9 nM. The figure for `Cc1c(C(=O)c2ccccc2)c(=O)n(-c2ccccc2)n1C[C@H](O)CN(C(C)C)C(C)C` is 15800 nM.

The compound `Cc1ccccc1N1CCN(C[C@@H](O)Cn2c(C)c(C(=O)c3ccccc3)c(=O)n2-c2ccccc2)CC1` showed an EC50 of 891 nM. The figure for `Cc1c(C(=O)c2ccccc2)c(=O)n(C)n1C[C@H](O)CN(C(C)C)C(C)C` is 24000 nM; for `Cc1nn(C)c(OC[C@H](O)CN(C(C)C)C(C)C)c1C(=O)c1ccccc1` it is 1200 nM.

Take `Cc1c([C@H](O)c2ccccc2)c(=O)n(-c2ccccc2)n1C[C@H](O)CN(C(C)C)C(C)C`: the EC50 was 24000 nM. The figure for `CCC/N=C(/CCc1ccccc1)[C@H]1C(=O)N(c2ccccc2)N=C1C` is 3720 nM. In the case of `CCCNC[C@@H](O)Cn1c(C)c(C(=O)CCc2ccccc2)c(=O)n1-c1ccccc1`, the EC50 is 6310 nM. This EC50 is about 1.7-fold higher than that of the compound before.

For the compound `CCCNC[C@@H](O)Cn1c(C)c(C(=O)c2ccccc2)c(=O)n1-c1ccccc1`, the response was half-maximal at 186000 nM (EC50). This EC50 is about 29-fold higher than that of the compound before. The figure for `Cc1c(C(=O)CCc2ccccc2)c(=O)n(-c2ccccc2)n1C[C@H](O)CNC(C)C` is 11700 nM; for `Cc1c(C(=O)CCc2ccccc2)c(=O)n(-c2ccccc2)n1C[C@H](O)CNC(C)(C)C` it is 7760 nM; for `CCCCNC[C@@H](O)Cn1c(C)c(C(=O)CCc2ccccc2)c(=O)n1-c1ccccc1` it is 2690 nM. The figure for `Cc1c(C(=O)c2cccs2)c(=O)n(-c2ccccc2)n1C[C@H](O)CNC(C)(C)C` is 72400 nM; for `Cc1c(C(=O)c2cccs2)c(=O)n(-c2ccccc2)n1C[C@H](O)CNC(C)C` it is 123000 nM; for `Cc1c(C(=O)c2ccccc2)c(=O)n(-c2ccccc2)n1C[C@H](O)CNC(C)C` it is 83200 nM. On to `Cc1c(C(=O)c2ccccc2)c(=O)n(-c2ccccc2)n1C[C@H](O)CNC(C)(C)C`, for which the EC50 is 81300 nM.

`CCCNC[C@@H](O)Cn1c(C)c(C(=O)c2cccs2)c(=O)n1-c1ccccc1` had an EC50 of 95500 nM. `CCCNC[C@@H](O)COc1ccsc1C(=O)CCc1ccccc1` showed an EC50 of 813 nM. Consider `CN1CCO[C@@H]2[C@@H]1c1cc(C#N)ccc1OC2(C)C`, for which the EC50 is 61700 nM. The figure for `CC1(C)Oc2ccc(C#N)cc2[C@H]2[C@H]1OCCN2Cc1ccccc1` is 19500 nM; for `CN(CCO)[C@H]1c2cc(C#N)ccc2OC(C)(C)[C@@H]1O` it is 97700 nM. The figure for `CC1(C)Oc2ccc(C#N)cc2[C@H](N(CCO)Cc2ccccc2)[C@H]1O` is 5370 nM. In turn, `CC(C)[C@H](C(=O)OC(C)(C)C)N(C)[C@H]1c2cc(C#N)ccc2OC(C)(C)[C@@H]1O` showed an EC50 of 977 nM. This EC50 is about 5.5-fold lower than that of the compound before. As to `CC(C)[C@@H]1CO[C@@H]2[C@@H](N1)c1cc(C#N)ccc1OC2(C)C`, the EC50 is 49000 nM. The figure for `COc1ccccc1N1CCN([C@H]2c3ccccc3N(C(=O)c3ccc(C)cc3)[C@H](C)[C@@H]2O)CC1` is 3550 nM; for `CCN(CCO)[C@@H]1c2ccccc2N(C(=O)c2ccc(C)cc2)[C@H](C)[C@@H]1O` it is 9120 nM; for `Cc1ccc(C(=O)N2c3ccccc3[C@@H](N(CCO)Cc3ccccc3)[C@@H](O)[C@H]2C)cc1` it is 1380 nM. Consider `Cc1ccc(C(=O)N2c3ccccc3[C@H](NCc3ccccc3)[C@@H](O)[C@H]2C)cc1`, for which a half-maximal effect (EC50) was put at 3240 nM. The figure for `Cc1ccc(C(=O)N2c3ccccc3[C@H](N3CCN(Cc4ccccc4)CC3)[C@@H](O)[C@H]2C)cc1` is 427 nM; for `Cc1ccc(C(=O)N2c3ccccc3[C@@H](N3CCCC3)[C@@H](O)[C@H]2C)cc1` it is 7940 nM. On to `Cc1ccc(C(=O)O[C@@H]2[C@H](N3CCCC3)c3ccccc3N[C@@H]2C)cc1`, for which a half-maximal effect (EC50) was put at 4680 nM. `CCN(CC)CCC[C@H](C)N[C@@H]1c2ccccc2N(C(=O)c2ccc(C)cc2)[C@H](C)[C@@H]1O`: the response was half-maximal at 2690 nM (EC50). This EC50 lies about 1.7-fold lower than the previous one. The figure for `CCN(CC)CCC[C@H](C)N[C@@H]1c2ccccc2N[C@H](C)[C@@H]1OC(=O)c1ccc(C)cc1` is 331 nM; for `CC(C)[C@H](N[C@H]1c2cc(C#N)ccc2OC(C)(C)[C@@H]1O)C(=O)OC(C)(C)C` it is 1780 nM; for `CCc1ccc(N2C(=O)c3ccccc3N[C@H]2c2ccc(OCC(C)C)cc2)cc1` it is 1200 nM.

`CCOc1ccc(N2C(=O)c3ccccc3N[C@H]2c2ccc(N(C)C)cc2)cc1` showed a concentration for a half-maximal effect (EC50) of 25100 nM. This EC50 lies about 21-fold higher than the previous one. The figure for `COc1ccc([C@@H]2Nc3ccccc3C(=O)N2c2ccc(NC(C)=O)cc2)cc1` is 20900 nM. The figure for `COc1ccc([C@@H]2Nc3ccccc3C(=O)N2c2ccc(Oc3ccccc3)cc2)cc1` is 1000 nM. The figure for `CC[C@H](C)c1ccc(N2C(=O)c3ccccc3N[C@H]2c2ccc(OC)cc2)cc1` is 759 nM. On to `CC[C@H](C)c1ccc(N2C(=O)c3ccccc3N[C@H]2c2ccc(C(C)C)cc2)cc1`, for which the EC50 is 288 nM. The figure for `CC(C)(C)c1ccc(N2C(=O)c3ccccc3N[C@H]2c2ccc3c(c2)OCO3)cc1` is 741 nM; for `CCOc1ccccc1NC(=O)C1=C(C)NC(=S)N[C@@H]1c1cccs1` it is 8710 nM; for `CC(C)(C)OC(=O)CN(Cc1ccccc1)[C@H]1c2cc(C#N)ccc2OC(C)(C)[C@@H]1O` it is 2000 nM. The figure for `CC1(C)Oc2ccc(C#N)cc2[C@H](N2CCN(Cc3ccccc3)CC2)[C@H]1O` is 851 nM; for `CC(C)(C)OC(=O)CN[C@H]1c2cc(C#N)ccc2OC(C)(C)[C@@H]1O` it is 46800 nM.

What is called EC50 is the concentration giving half of the maximal effect. Higher therefore signals a need for much substance.
